Assay [1] deals with Diamine oxidase AOC1 (Homo sapiens). The assay can be described thus: Inhibition of human DAO expressed in CHO cells using putrescine as substrate after 1 hr by fluorometric assay.
Assay [2] deals with Diamine oxidase AOC1 (Rattus norvegicus). The assay can be described thus: Inhibition of rat liver DAO using putrescine as substrate after 1 hr by fluorometric assay.

The text below walks through data of BindingDB's records for doi:10.1016/j.bmc.2012.12.025 (Astellas Pharma, 2013).

pIC50: −log10 of the molar value. Where only a bound is given, the exact number is not on record here.

As a reminder, the pIC50 is −log10 of the IC50, conventionally taken in molar units. Read a high pIC50 as a small IC50.

With `CC(=O)Nc1nc(CCc2ccc(N=C(N)N)cc2)cs1`, the results for the pIC50 in assay [1] and in assay [2] were under 4.00 and 4.12, respectively.
